Data reported in ChEMBL document CHEMBL4825696, “Development of photocontrolled BRD4 PROTACs for tongue squamous cell carcinoma (TSCC)” (Eur J Med Chem, 2021).
One block for each molecule: values may come before it. The source made the active and inactive calls. The calls are words filed in the database; no cut-off is given here.

Assays:
[1] = Induction of apoptosis in human HN-6 cells assessed as necrotic cells at 5 uM irradiated with 365 nm UVA light for 15 mins followed by incubation with compound for 24 hrs by AnnexinV-FITC/propidium iodide staining based flow cytometry analysis (reference value: 2.7%); format: functional
HN-6 [2] = assay: Antiproliferative activity against human HN-6 cells assessed as reduction in cell viability irradiated with 365 nm UVA light for 15 mins followed by incubation with compound for 24 hrs by CCK-8 assay; format: functional, cell-based
[3] = (§1) Photolysis of compound in acetonitrile assessed as 2-((S)-4-(4-chlorophenyl)-2,3,9-trimethyl-6H-thieno[3,2-f][1,2,4]triazolo[4,3a][1,4]diazepin-6-yl)-N-(4-(2-((2-(2,6-dioxopiperidin-3-yl)-1,3-dioxoisoindolin-4-yl)oxy)acetamido)butyl)acetamide formation at 40 uM incubated for 60 mins under 365 nm UVA irradiation by HPLC analysis; format: functional
HN-6 [4] = assay: (§2) Antiproliferative activity against human HN-6 cells assessed as reduction in cell viability incubated for 24 hrs by CCK-8 assay; format: functional, cell-based
[5] = as §1, with “DMSO-d6” for “acetonitrile”, “10 mM” for “40 uM”, “1H-NMR” for “HPLC”; format: functional
[6] = Induction of apoptosis in human HN-6 cells assessed as late apoptotic cells at 5 uM measured after 1 hr by AnnexinV-FITC/propidium iodide staining based flow cytometry analysis (reference value: 1.46%); format: functional
[7] = Induction of apoptosis in human HN-6 cells assessed as late apoptotic cells at 5 uM irradiated with 365 nm UVA light for 15 mins followed by incubation with compound for 24 hrs by AnnexinV-FITC/propidium iodide staining based flow cytometry analysis (Rvb =1.69%); format: functional
[8] = target: T1, Protein cereblon/Bromodomain-containing protein 4 (Homo sapiens) (UniProt O60885+Q96SW2); assay: PhotoPROTAC activity at CRBN/BRD4 in human HEK293T cells assessed as BRD4 degradation by measuring downregulation of c-Myc level pretreated for 1 hr followed by irradiation with 365 nm UVA light for 15 mins and measured after 24 hrs by Western blot analysis; format: cell-based; settings: time 1515.0 min
[9] = as §1, with “UV-Vis spectral” for “HPLC”; format: functional
[10] = Induction of apoptosis in human HN-6 cells assessed as early apoptotic cells at 5 uM measured after 1 hr by AnnexinV-FITC/propidium iodide staining based flow cytometry analysis (Rvb =1.54%); format: functional
[11] = target: T1, Protein cereblon/Bromodomain-containing protein 4 (Homo sapiens); assay: PhotoPROTAC activity at CBRN/BRD4 in human HEK293T cells assessed as degradation of BRD4 irradiated with 365 nm UVA light for 15 mins followed by incubation with compound for 30 mins by Fluorescence polarization competitive binding assay; format: cell-based
[12] = Induction of apoptosis in human HN-6 cells assessed as viable cells at 5 uM measured after 1 hr by AnnexinV-FITC/propidium iodide staining based flow cytometry analysis (reference value: 93.62%); format: functional; settings: read-out: Activity
HN-6 [13] = assay: Antitumour activity against human HN-6 cells xenografted in zebrafish embryo assessed as inhibition of tumour growth at 50 uM irradiated with 365 nm UVA light for 20 mins and measured after 3 days by microscopic method; format: functional; settings: time 3.0 day
[14] = Induction of apoptosis in human HN-6 cells assessed as necrotic cells at 5 uM measured after 1 hr by AnnexinV-FITC/propidium iodide staining based flow cytometry analysis (reference value: 3.37%); format: functional
[15] = target: T1, Protein cereblon/Bromodomain-containing protein 4 (Homo sapiens); assay: PhotoPROTAC activity at CRBN/BRD4 in human HEK293T cells assessed as BRD4 degradation by measuring downregulation of BRD4 level at 3 uM pretreated for 1 hr followed by irradiation with 365 nm UVA light for 15 mins and measured after 24 hrs by Western blot analysis; format: cell-based; settings: time 1515.0 min
[16] = Induction of apoptosis in human HN-6 cells assessed as early apoptotic cells at 5 uM irradiated with 365 nm UVA light for 15 mins followed by incubation with compound for 24 hrs by AnnexinV-FITC/propidium iodide staining based flow cytometry analysis (reference value: 5.3%); format: functional
HN-6 [17] = assay: Antitumour activity against human HN-6 cells xenografted in zebrafish embryo assessed as inhibition of tumour growth at 50 uM measured after 72 hrs by microscopic method; format: functional
[18] = Induction of apoptosis in human HN-6 cells assessed as viable cells at 5 uM irradiated with 365 nm UVA light for 15 mins followed by incubation with compound for 24 hrs by AnnexinV-FITC/propidium iodide staining based flow cytometry analysis (reference value: 90.31%); format: functional; settings: HN-6, light or radiation study, read-out: Activity
[19] = as §2; format: functional, cell-based; settings: HN-6, 24 h
HN-6 [20] = assay: Antitumor activity against human HN-6 cells xenografted in nude mouse assessed as tumor growth inhibition at 50 mg/kg, ip administered every day for 2 weeks and measured every 2 days; format: functional, organism-based
[21] = target: T1, Protein cereblon/Bromodomain-containing protein 4 (Homo sapiens); assay: PROTAC activity at CRBN/BRD4 in human HEK293T cells assessed as BRD4 degradation by measuring downregulation of c-Myc level by western blot analysis; format: cell-based
[22] = target: T1, Protein cereblon/Bromodomain-containing protein 4 (Homo sapiens); assay: PROTAC activity at CRBN/BRD4 in human HEK293T cells assessed as BRD4 degradation by measuring downregulation of BRD4 level at 0.1 to 10 uM by western blot analysis; format: cell-based; settings: dose 0.1-10 µM
[23] = target: T1, Protein cereblon/Bromodomain-containing protein 4 (Homo sapiens); assay: PROTAC activity at CBRN/BRD4 in human HEK293T cells assessed as degradation of BRD4 measured after 30 mins by Fluorescence polarization competitive binding assay; format: cell-based
[24] = Photolysis of compound in acetonitrile assessed as 2-(2,6-dioxo-3-piperidyl)isoindoline-1,3-dione formation at 40 uM incubated for 40 mins under 365 nm UVA irradiation by UV-Vis spectral analysis; format: functional
[25] = Photolysis of compound in acetonitrile assessed as 2-(2,6-dioxo-3-piperidyl)isoindoline-1,3-dione formation at 40 uM incubated for 40 mins under 365 nm UVA irradiation by HPLC analysis; format: functional

- Activity [8]: Active
- Activity [11]: Dose-Dependent Effect
- Activity [15]: Active
SMILES: COc1cc(CN2C(=O)CCC(N3C(=O)c4cccc(OCC(=O)NCCCCNC(=O)C[C@@H]5N=C(c6ccc(Cl)cc6)c6c(sc(C)c6C)-n6c(C)nnc65)c4C3=O)C2=O)c([N+](=O)[O-])cc1OC (stereo not given in full)
- Activity [1]: 4.24%
- Activity (HN-6 [2]): Active
- Drug metabolism [3]: Metabolite detected
- Activity (HN-6 [4]): inactive
- Drug metabolism [5]: Metabolite detected
- Activity [6]: 4.05%
- Activity [7]: 8.35%
- Drug metabolism [9]: Metabolite detected
- Activity [10]: 10.85%
- viability at 5 µM [12]: 82.5%
- Activity (HN-6 [13]): Active
- Activity [14]: 2.55%
- Activity [16]: 19.29%
- Activity (HN-6 [17]): inactive
- viability at 5 µM [18]: 68.1%

- Activity [21]: Active
- Activity [22]: Active
- Activity [23]: Dose-Dependent Effect
SMILES: Cc1sc2c(c1C)C(c1ccc(Cl)cc1)=N[C@@H](CC(=O)NCCCCNC(=O)COc1cccc3c1C(=O)N(C1CCC(=O)NC1=O)C3=O)c1nnc(C)n1-2 (stereo not given in full)
- IC50 [19]: 7.07 µM
- Activity (HN-6 [20]): Active
- Activity [6]: 12.17%
- Activity [10]: 33.75%
- viability at 5 µM [12]: 51.1%
- Activity [14]: 3%
- Activity (HN-6 [17]): Active

SMILES: COc1cc(CN2C(=O)CCC(N3C(=O)c4ccccc4C3=O)C2=O)c([N+](=O)[O-])cc1OC (stereo not given)
- Drug metabolism [24]: Metabolite detected
- Drug metabolism [25]: Metabolite detected
